Where two headings read alike, the source gives them in different places.
Experiments:
[1] = tested on: transgenic soybean T1 plants expressing PfHPPD-Evo41; assay type: in vivo; conditions: for number of events, herbicide tolerance class 0 (41%-100% damaged leaf area) / number of events, herbicide tolerance class 1 (16%-40% damaged leaf area) / number of events, herbicide tolerance class 2 (6%-15% damaged leaf area) / number of events, herbicide tolerance class 3 (0%-5% damaged leaf area): soybean PfHPPD-Evo41, scored after 21 days
[2] = tested on: Ipomoea aristolochiaefolia; conditions: application at 6 leaf stage, assessment 14 days after application
[3] = tested on: transgenic soybean T1 plants expressing PfHPPD-Evo40; assay type: in vivo; conditions: for number of events, herbicide tolerance class 0 (41%-100% damaged leaf area) / number of events, herbicide tolerance class 1 (16%-40% damaged leaf area) / number of events, herbicide tolerance class 2 (6%-15% damaged leaf area) / number of events, herbicide tolerance class 3 (0%-5% damaged leaf area): soybean PfHPPD-Evo40, scored after 21 days
FMP22 (SEQ ID No 11) = FMP22 (SEQ ID No 11) (Rhodococcus jostii, UniProt A0ABU4CPN1); test: HPPD activity in presence of inhibitor, HGD assay; assay type: biochemical, Rhodococcus sp. (strain RHA1), isolate ro03041; conditions: 0.2 μM inhibitor
Protocol: (§1) With the HGD assay HPPD activity was measured at room temperature by adding appropriate amounts of HPPD to a solution of 200 mM Tris-HCl pH 7.6, 10 mM ascorbate, 20 μM FeSO4, 650 units of catalase, 8 μg HGA dioxygenase (HGA: homogentisate) and 600 μM HPP in a total volume of 1 ml. Initial reaction rates were determined from the increase in absorbance at 318 nm due to the formation of maleylacetoacetate (ε318=11,900 M-1 cm-1).
(§2) In cases, the symbol “>” is used this means that the value was far higher than the one indicated but could not be precisely calculated within in the range of concentration of inhibitor tested.
(§3) In the 1st column of Table 1, the HPPD employed in the assay is named and in the 2nd column of Table 1, the corresponding SEQ ID No of present invention is disclosed.

Axmi309H (SEQ ID No 35) = test: HPPD activity in presence of inhibitor, HGD assay; assay type: biochemical, Pseudomonas agarici
Protocol: as §1, §2, §3

[4] = tested on: Axmi309H-Evo41 (SEQ ID No 37); test: HPPD activity in presence of inhibitor, HGD assay; assay type: biochemical, Pseudomonas agarici
Protocol: as §1, §2, §3

[5] = molecular target: PfHPPD-Evo33 (SEQ ID No 25) (Pseudomonas sp., UniProt P80064, A172V/A53E/D148E/D45N/E105D/E287Q/E300V/E334P/F143Y/G286D/G335W/H150N/H254A/H63N/I158V/I187A/I249V/K92N/L18F/N24G/N280D/S245T/S257K/S301E/T205S/V65I); test: biochemical; design: species or system Pseudomonas fluorescens
wild type soybean Merlin = assay type: in vivo; conditions: scored after 21 days
[6] = molecular target: Avena sativa Δ A109 (SEQ ID No 43) (Avena sativa, UniProt A0ACD5V6K6, DEL109-109); test: HPPD activity in presence of inhibitor, HGD assay; assay type: biochemical
Protocol: as §1, §2, §3

FMP37 (SEQ ID No 9) = FMP37 (SEQ ID No 9) (Blepharisma japonicum, UniProt A8R3H6); test: HPPD activity in presence of inhibitor, HGD assay; assay type: biochemical
Protocol: as §1, §2, §3

FMP27 (SEQ ID No 17) = FMP27 (SEQ ID No 17) (Kordia algicida, UniProt A9DQF2); test: HPPD activity in presence of inhibitor, HGD assay; assay type: biochemical
Protocol: as §1, §2, §3

[7] = molecular target: PfHPPD-Evo41 (SEQ ID No 29) (Pseudomonas sp., UniProt P80064, A172V/A339Q/A53E/D148E/D45N/E105D/E287Q/E300V/E334P/F143Y/G286D/G335W/H150N/H254A/H63N/I158V/I187A/I249V/K338A/K92N/L18F/N24G/N280D/S245T/S257K/S301E/T205S/V65I); test: biochemical; design: species or system Pseudomonas fluorescens
Axmi428H (SEQ ID No 31) = Axmi428H (SEQ ID No 31) (Comamonas testosteroni, UniProt A0A8B4SBH1); test: HPPD activity in presence of inhibitor, HGD assay; assay type: biochemical, Pseudomonas (=Comamonas) testosteroni; conditions: 0.2 μM inhibitor
Protocol: as §1, §2, §3

[8] = room temperature, 600 μM HPP, molar concentration
[9] = soybean Merlin (wt), 6.25 g AI/ha

PfHPPD-Evo41 (SEQ ID No 29), sequence (P80064 1-354 with tags or gaps with the stated changes limits assumed): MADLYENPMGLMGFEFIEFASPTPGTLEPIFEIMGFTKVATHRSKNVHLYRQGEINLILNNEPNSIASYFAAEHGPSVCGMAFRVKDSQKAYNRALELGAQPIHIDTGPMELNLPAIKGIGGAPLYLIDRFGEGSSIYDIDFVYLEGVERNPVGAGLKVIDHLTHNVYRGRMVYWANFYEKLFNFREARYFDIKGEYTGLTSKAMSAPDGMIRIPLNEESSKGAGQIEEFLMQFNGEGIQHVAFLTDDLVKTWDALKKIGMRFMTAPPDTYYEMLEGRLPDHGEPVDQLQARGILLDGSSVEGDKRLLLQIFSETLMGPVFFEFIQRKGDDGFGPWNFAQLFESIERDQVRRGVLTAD
FMP27 (SEQ ID No 17), sequence (A9DQF2 1-387): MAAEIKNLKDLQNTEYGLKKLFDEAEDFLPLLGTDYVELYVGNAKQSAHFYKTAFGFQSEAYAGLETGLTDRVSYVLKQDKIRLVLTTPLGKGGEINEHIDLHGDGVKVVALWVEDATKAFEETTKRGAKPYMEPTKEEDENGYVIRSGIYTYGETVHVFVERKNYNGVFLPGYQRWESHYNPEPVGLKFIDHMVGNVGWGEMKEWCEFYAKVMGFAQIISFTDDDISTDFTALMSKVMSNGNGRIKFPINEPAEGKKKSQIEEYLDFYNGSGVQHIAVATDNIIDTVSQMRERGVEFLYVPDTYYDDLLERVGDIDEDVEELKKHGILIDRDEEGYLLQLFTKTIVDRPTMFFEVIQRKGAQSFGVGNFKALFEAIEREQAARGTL
FMP37 (SEQ ID No 9), sequence (A8R3H6 1-382): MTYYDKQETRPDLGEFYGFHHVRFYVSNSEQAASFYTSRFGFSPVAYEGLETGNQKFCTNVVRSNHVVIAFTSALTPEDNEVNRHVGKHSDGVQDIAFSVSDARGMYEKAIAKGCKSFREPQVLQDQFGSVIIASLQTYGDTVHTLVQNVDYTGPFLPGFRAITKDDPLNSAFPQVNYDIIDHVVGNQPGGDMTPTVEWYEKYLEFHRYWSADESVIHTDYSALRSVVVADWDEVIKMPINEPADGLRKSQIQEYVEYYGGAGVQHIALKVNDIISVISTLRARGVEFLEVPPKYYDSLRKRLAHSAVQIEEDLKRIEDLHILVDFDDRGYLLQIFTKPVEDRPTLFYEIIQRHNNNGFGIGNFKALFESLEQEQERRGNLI
Avena sativa Δ A109 (SEQ ID No 43), sequence (A0ACD5V6K6 entry or part of it DEL109-109): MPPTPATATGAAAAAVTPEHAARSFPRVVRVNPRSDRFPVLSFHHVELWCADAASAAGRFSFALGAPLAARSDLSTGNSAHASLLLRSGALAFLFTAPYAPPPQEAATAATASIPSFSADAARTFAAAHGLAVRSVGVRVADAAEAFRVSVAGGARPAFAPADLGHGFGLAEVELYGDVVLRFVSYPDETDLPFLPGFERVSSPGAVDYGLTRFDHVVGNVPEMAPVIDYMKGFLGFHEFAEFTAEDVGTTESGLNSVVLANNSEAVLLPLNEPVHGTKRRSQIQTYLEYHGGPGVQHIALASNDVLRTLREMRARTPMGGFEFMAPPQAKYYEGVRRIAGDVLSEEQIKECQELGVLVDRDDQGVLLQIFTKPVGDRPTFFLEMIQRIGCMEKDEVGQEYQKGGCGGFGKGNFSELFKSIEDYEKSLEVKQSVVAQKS
PfHPPD-Evo33 (SEQ ID No 25), sequence (P80064 1-354 with tags or gaps with the stated changes limits assumed): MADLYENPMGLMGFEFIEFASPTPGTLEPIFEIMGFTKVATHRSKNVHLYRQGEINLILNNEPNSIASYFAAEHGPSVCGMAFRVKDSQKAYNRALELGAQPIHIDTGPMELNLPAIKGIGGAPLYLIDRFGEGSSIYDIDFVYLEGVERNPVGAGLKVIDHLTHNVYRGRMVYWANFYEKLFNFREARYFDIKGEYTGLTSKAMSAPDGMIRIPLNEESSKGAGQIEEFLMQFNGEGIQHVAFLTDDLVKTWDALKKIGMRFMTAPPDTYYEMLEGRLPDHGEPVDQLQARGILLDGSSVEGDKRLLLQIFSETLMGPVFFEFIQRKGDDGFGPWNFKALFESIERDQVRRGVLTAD
FMP22 (SEQ ID No 11), sequence (A0ABU4CPN1 1-401): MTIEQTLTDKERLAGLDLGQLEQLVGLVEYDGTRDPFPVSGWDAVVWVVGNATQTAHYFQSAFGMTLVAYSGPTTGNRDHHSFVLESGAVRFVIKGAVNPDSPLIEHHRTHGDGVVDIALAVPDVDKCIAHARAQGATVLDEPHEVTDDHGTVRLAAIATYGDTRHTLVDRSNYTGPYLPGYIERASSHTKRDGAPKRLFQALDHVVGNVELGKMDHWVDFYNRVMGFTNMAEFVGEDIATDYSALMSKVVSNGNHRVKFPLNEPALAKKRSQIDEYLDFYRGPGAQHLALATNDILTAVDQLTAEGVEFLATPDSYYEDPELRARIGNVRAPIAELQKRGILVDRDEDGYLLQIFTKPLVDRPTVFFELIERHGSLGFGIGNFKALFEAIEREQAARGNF
Axmi428H (SEQ ID No 31), sequence (A0A8B4SBH1 1-373): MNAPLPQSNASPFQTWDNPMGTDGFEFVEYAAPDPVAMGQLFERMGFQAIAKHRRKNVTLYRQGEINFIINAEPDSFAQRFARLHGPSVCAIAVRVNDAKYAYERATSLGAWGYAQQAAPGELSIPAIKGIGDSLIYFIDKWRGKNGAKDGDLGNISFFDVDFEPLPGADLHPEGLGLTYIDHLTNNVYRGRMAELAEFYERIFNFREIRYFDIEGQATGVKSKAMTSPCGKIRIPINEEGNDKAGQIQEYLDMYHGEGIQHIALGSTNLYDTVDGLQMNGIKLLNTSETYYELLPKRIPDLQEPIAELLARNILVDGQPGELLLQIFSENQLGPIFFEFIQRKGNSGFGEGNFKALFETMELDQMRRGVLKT

Structure (SMILES): CSc1c(C(F)(F)F)ccc(C(=O)Nc2nnnn2C)c1Cl
- herbicide tolerance ([1]; most soybean T1 plants expressing PfHPPD-Evo41, 25 g AI/ha): high tolerance
- damaged leaf area ([1]; several soybean T1 plants expressing PfHPPD-Evo41, 50 g AI/ha): less than 5%
- number of events, herbicide tolerance class 0 (41%-100% damaged leaf area) ([1]; 6.25 g AI/ha): 0
- number of events, herbicide tolerance class 1 (16%-40% damaged leaf area) ([1]; 6.25 g AI/ha): 0
- number of events, herbicide tolerance class 2 (6%-15% damaged leaf area) ([1]; 6.25 g AI/ha): 0
- number of events, herbicide tolerance class 3 (0%-5% damaged leaf area) ([1]; 6.25 g AI/ha): 12
- number of events, herbicide tolerance class 0 (41%-100% damaged leaf area) ([1]; 25 g AI/ha): 2
- number of events, herbicide tolerance class 1 (16%-40% damaged leaf area) ([1]; 25 g AI/ha): 8
- number of events, herbicide tolerance class 2 (6%-15% damaged leaf area) ([1]; 25 g AI/ha): 1
- number of events, herbicide tolerance class 3 (0%-5% damaged leaf area) ([1]; 25 g AI/ha): 21
- number of events, herbicide tolerance class 0 (41%-100% damaged leaf area) ([1]; 50 g AI/ha): 0
- number of events, herbicide tolerance class 1 (16%-40% damaged leaf area) ([1]; 50 g AI/ha): 1
- number of events, herbicide tolerance class 2 (6%-15% damaged leaf area) ([1]; 50 g AI/ha): 0
- number of events, herbicide tolerance class 3 (0%-5% damaged leaf area) ([1]; 50 g AI/ha): 3
- number of events, herbicide tolerance class 0 (41%-100% damaged leaf area) ([1]; 75 g AI/ha): 0
- number of events, herbicide tolerance class 1 (16%-40% damaged leaf area) ([1]; 75 g AI/ha): 4
- number of events, herbicide tolerance class 2 (6%-15% damaged leaf area) ([1]; 75 g AI/ha): 0
- number of events, herbicide tolerance class 3 (0%-5% damaged leaf area) ([1]; 75 g AI/ha): 0
- Efficacy (%) Ipomoea aristolochiaefolia ([2]; (A) 25 g ai/ha): 10%
- Efficacy (%) Ipomoea aristolochiaefolia ([2]; (A) 50 g ai/ha): 15%
- herbicide tolerance ([3]; most soybean T1 plants expressing PfHPPD-Evo40, 25 g AI/ha): high tolerance
- number of events, herbicide tolerance class 0 (41%-100% damaged leaf area) ([3]; 6.25 g AI/ha): 0
- number of events, herbicide tolerance class 1 (16%-40% damaged leaf area) ([3]; 6.25 g AI/ha): 0
- number of events, herbicide tolerance class 2 (6%-15% damaged leaf area) ([3]; 6.25 g AI/ha): 0
- number of events, herbicide tolerance class 3 (0%-5% damaged leaf area) ([3]; 6.25 g AI/ha): 4
- number of events, herbicide tolerance class 0 (41%-100% damaged leaf area) ([3]; 25 g AI/ha): 2
- number of events, herbicide tolerance class 1 (16%-40% damaged leaf area) ([3]; 25 g AI/ha): 7
- number of events, herbicide tolerance class 2 (6%-15% damaged leaf area) ([3]; 25 g AI/ha): 1
- number of events, herbicide tolerance class 3 (0%-5% damaged leaf area) ([3]; 25 g AI/ha): 6
- number of events, herbicide tolerance class 0 (41%-100% damaged leaf area) ([3]; 50 g AI/ha): 0
- number of events, herbicide tolerance class 1 (16%-40% damaged leaf area) ([3]; 50 g AI/ha): 4
- number of events, herbicide tolerance class 2 (6%-15% damaged leaf area) ([3]; 50 g AI/ha): 0
- number of events, herbicide tolerance class 3 (0%-5% damaged leaf area) ([3]; 50 g AI/ha): 0
- number of events, herbicide tolerance class 0 (41%-100% damaged leaf area) ([3]; 75 g AI/ha): 0
- number of events, herbicide tolerance class 1 (16%-40% damaged leaf area) ([3]; 75 g AI/ha): 4
- number of events, herbicide tolerance class 2 (6%-15% damaged leaf area) ([3]; 75 g AI/ha): 0
- number of events, herbicide tolerance class 3 (0%-5% damaged leaf area) ([3]; 75 g AI/ha): 0
- inhibition at 0.2 µM (FMP22 (SEQ ID No 11)): 0%
- % inhibition at 0.2 μM (Axmi309H (SEQ ID No 35); 0.2 μM inhibitor): 78%
- pI50 (Axmi309H (SEQ ID No 35); [8]): 7.1
- % inhibition at 0.2 μM ([4]; 0.2 μM inhibitor): 26%
- pI50 [4, 8]: 6.5
- IC50 [5]: 251 nM
- % inhibition at 0.2 μM ([5]; 0.2 μM inhibitor, HGD assay): 39%
- number of events, herbicide tolerance class 0 (41%-100% damaged leaf area) (wild type soybean Merlin; [9]): 4
- number of events, herbicide tolerance class 1 (16%-40% damaged leaf area) (wild type soybean Merlin; [9]): 0
- number of events, herbicide tolerance class 2 (6%-15% damaged leaf area) (wild type soybean Merlin; [9]): 0
- number of events, herbicide tolerance class 3 (0%-5% damaged leaf area) (wild type soybean Merlin; [9]): 0
- number of events, herbicide tolerance class 0 (41%-100% damaged leaf area) (wild type soybean Merlin; soybean Merlin, 25 g AI/ha): 4
- number of events, herbicide tolerance class 1 (16%-40% damaged leaf area) (wild type soybean Merlin; soybean Merlin, 25 g AI/ha): 0
- number of events, herbicide tolerance class 2 (6%-15% damaged leaf area) (wild type soybean Merlin; soybean Merlin, 25 g AI/ha): 0
- number of events, herbicide tolerance class 3 (0%-5% damaged leaf area) (wild type soybean Merlin; soybean Merlin, 25 g AI/ha): 0
- IC50 [6]: 2000 nM
- inhibition at 0.2 µM ([6]; 0.2 μM inhibitor, HGD assay): 8%
- IC50 (FMP37 (SEQ ID No 9)): 5010 nM
- inhibition at 0.2 µM (FMP37 (SEQ ID No 9); 0.2 μM inhibitor, HGD assay): 0%
- IC50 (FMP27 (SEQ ID No 17)): 316 nM
- inhibition at 0.2 µM (FMP27 (SEQ ID No 17); 0.2 μM inhibitor, HGD assay): 29%
- IC50 [7]: 200 nM
- % inhibition at 0.2 μM ([7]; 0.2 μM inhibitor, HGD assay): 50%
- inhibition at 0.2 µM (Axmi428H (SEQ ID No 31)): 71%
